Source: paper PMC11992225, “Antibacterial compounds against non-growing and intracellular bacteria” (npj Antimicrobials and Resistance, 2025)
Values after ≈ are worked out from the molar mass of the structure shown. Where two headings read alike, the source gives them in different places.

How the values were obtained:
[1] = test system: non-growing P. aeruginosa DSM1117; assay: Dilution-regrowth assay (OD600, start-growth-time) on stationary-phase P. aeruginosa; assay type: cell-based, Pseudomonas aeruginosa; details: Pseudomonas aeruginosa, DSM1117; P. aeruginosa; regrowth delay of non-growing bacteria, 1:4 CA-MHB pH 7.4, 24 h treatment, OD600 8 h after dilution; read-out: EC50
Summary of the method: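 Start-growth-time was taken as the point where OD600, recorded every 20 min at 37 °C over about 20 h of regrowth, passed 0.12. Before that, non-growing cultures in HEPES-buffered 1:4 CA-MHB (pH 7.4) were exposed for 24 h, with compounds at 20 μM in preliminary runs.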

S. flexneri 5a M90T = assay: MIC in tryptic soy broth, S. flexneri; assay type: cell-based, Shigella flexneri; details: Shigella flexneri, 5AM90T, read-out: MIC (μM) TSB
Summary of the method: (§1)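 MICs come from microdilution in CA-MHB/40 mM HEPES pH 7.4 for the UPEC, Pseudomonas and Staphylococcus strains, and in TSB for Shigella. UPEC also tested in LPM/30 mM MES pH 5.5.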

non-growing UPEC CFT073 = assay: Dilution-regrowth assay (screen, hit validation, dose-response) on stationary-phase UPEC; assay type: cell-based, Escherichia coli
Summary of the method: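 Regrowth (OD600 after 6 h, 37 °C) of diluted non-growing CFT073, following 24 h compound treatment of 24 h stationary cultures, defines activity relative to untreated control. Screen at 20 µM, validation at 20, 10, 5 µM (duplicates), dose–response in three biological replicates fitted by five-parameter logistic.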

P. aeruginosa DSM1117 = assay: MIC, standard microdilution assay, growing P. aeruginosa; assay type: cell-based, Pseudomonas aeruginosa; details: Pseudomonas aeruginosa, DSM1117, P. aeruginosa
Summary of the method: as §1

E. coli CFT073 (UPEC) = assay: MIC, standard microdilution assay, growing UPEC; assay type: cell-based, Escherichia coli; details: E. coli, pH 7.4; for MIC: Escherichia coli
Summary of the method: as §1

S. aureus DSM2569 = assay: MIC, standard microdilution assay, growing S. aureus; assay type: cell-based, Staphylococcus aureus; details: Staphylococcus aureus, DSM2569; S. aureus; CA-MHB pH 7.4; read-out: MIC (μM) CA-MHB
Summary of the method: as §1

**Q.** For `C=C[C@]1(C)C[C@@H](OC(=O)CSC(C)(C)CNC(=O)[C@H](N)C(C)C)[C@]2(C)[C@H](C)CC[C@]3(CCC(=O)[C@H]32)[C@@H](C)[C@@H]1O` [Valnemulin], which EC50 [1] is on record?
**A.** The EC50 was 324 nM.

**Q.** What about the MIC (S. flexneri 5a M90T) of the same compound?
**A.** Its MIC is 16 µM (≈ 9.04 µg/mL).

**Q.** And the EC50 (non-growing UPEC CFT073; Escherichia coli, E. coli, pH 7.4, regrowth delay of non-growing bacteria, 1:4 CA-MHB, 24 h treatment, OD600 6 h after 2500-fold dilution, read-out: EC50)?
**A.** Its EC50 is 373 nM.

**Q.** And the “activity against non-growing UPEC in LPM (pH 5.5) compared to 1:4 CA-MHB (pH 7.4)” value (non-growing UPEC CFT073; regrowth delay and killing, Figs. 2 and 3)?
**A.** Its value is “active at pH 7.4 and completely inactive in the acidic medium”.

**Q.** What about the MIC (P. aeruginosa DSM1117; 1:4 diluted CA-MHB pH 7.4, read-out: MIC (μM) 1:4 CA-MHB) of the same compound?
**A.** Its MIC is over 160 µM.

**Q.** And the MIC (P. aeruginosa DSM1117; CA-MHB pH 7.4, read-out: MIC (μM) CA-MHB)?
**A.** The MIC was over 160 µM.

**Q.** What about the “MIC (μM) CA-MHB +PAβN” value (E. coli CFT073 (UPEC); CA-MHB with 10 μg/ml efflux pump inhibitor PaβN) of the same compound?
**A.** The value was 10 µM (≈ 5.65 µg/mL).

**Q.** What about the MIC (E. coli CFT073 (UPEC); 1:4 diluted CA-MHB, read-out: MIC (μM) 1:4 CA-MHB) of the same compound?
**A.** Its MIC is 10 µM (≈ 5.65 µg/mL).

**Q.** And the MIC (E. coli CFT073 (UPEC); CA-MHB, read-out: MIC (μM) CA-MHB)?
**A.** Its MIC is 20 µM (≈ 11.3 µg/mL).

**Q.** And the MIC (S. aureus DSM2569)?
**A.** Its MIC is 0.125 µM (≈ 0.0706 µg/mL).
